Laboratory results reported in patent publication US8530465B2, “1, 2-disubstituted amido-anthraquinone derivatives, preparation method and application thereof” (National Defense Medical Center, priority 2010, dated 2013).

Columns and labels:
Assay type in all cases: cell-based, human
CCRF-CEM = test: NCI drug screen, CCRF-CEM; conditions: CCRF-CEM (Leukemia); 1.00E−5 Molar
Procedure: (§1) In brief, cellular protein levels were determined after 48 hours of drug exposure by sulforhodamine B colorimetry. Through the use of a time 0 cell control, the cell growth can be determined for each cell line thus allowing calculations of the 50% growth inhibitory concentration (GI50), the total growth inhibition (TGI), and the 50% lethal concentration (LC50). Comparison to plates not exposed to drug permits determination of concentration and times of exposure conferring 50% net growth inhibition (GI50), TGI, and 50% cell kill (LC50).
(§2) The screening system in United State National Cancer Institute (NCI) is consisted of 60 kinds of different human cancer cells, which can be used to assay the growth-inhibiting ability or cell toxicity of a compound against various cancer and tumor at a certain concentration.

HL-60(TB) = test: NCI drug screen, HL-60(TB); conditions: HL-60(TB) (Leukemia); 1.00E−5 Molar
Procedure: as §1, §2

K562 = test: NCI drug screen, K562; conditions: K562 (Leukemia); 1.00E−5 Molar
Procedure: as §1, §2

HOP-62 = test: NCI drug screen, HOP-62; conditions: HOP-62 (Non-Small Cell Lung Cancer); 1.00E−5 Molar
Procedure: as §1, §2

HOP-92 = test: NCI drug screen, HOP-92; conditions: HOP-92 (Non-Small Cell Lung Cancer); 1.00E−5 Molar
Procedure: as §1, §2

NCI-H226 = test: NCI drug screen, NCI-H226; conditions: NCI-H226 (Non-Small Cell Lung Cancer); 1.00E−5 Molar
Procedure: as §1, §2

NCI-H322M = test: NCI drug screen, NCI-H322M; conditions: NCI-H322M (Non-Small Cell Lung Cancer); 1.00E−5 Molar
Procedure: as §1, §2

NCI-H460 = test: NCI drug screen, NCI-H460; conditions: NCI-H460 (Non-Small Cell Lung Cancer); 1.00E−5 Molar
Procedure: as §1, §2

NCI-H522 = test: NCI drug screen, NCI-H522; conditions: NCI-H522 (Non-Small Cell Lung Cancer); 1.00E−5 Molar
Procedure: as §1, §2

A549/ATCC = test: NCI drug screen, A549/ATCC; conditions: A549/ATCC (Non-Small Cell Lung Cancer); 1.00E−5 Molar
Procedure: as §1, §2

HCC-2998 = test: NCI drug screen, HCC-2998; conditions: HCC-2998 (Colon Cancer); 1.00E−5 Molar
Procedure: as §1, §2

HCT-116 = test: NCI drug screen, HCT-116; conditions: HCT-116 (Colon Cancer); 1.00E−5 Molar
Procedure: as §1, §2

HCT-15 = test: NCI drug screen, HCT-15; conditions: HCT-15 (Colon Cancer); 1.00E−5 Molar
Procedure: as §1, §2

HT29 = test: NCI drug screen, HT29; conditions: HT29 (Colon Cancer); 1.00E−5 Molar
Procedure: as §1, §2

KM12 = test: NCI drug screen, KM12; conditions: KM12 (Colon Cancer); 1.00E−5 Molar
Procedure: as §1, §2

SW-620 = test: NCI drug screen, SW-620; conditions: SW-620 (Colon Cancer); 1.00E−5 Molar
Procedure: as §1, §2

SF-295 = test: NCI drug screen, SF-295; conditions: SF-295 (CNS Cancer); 1.00E−5 Molar
Procedure: as §1, §2

SNB-75 = test: NCI drug screen, SNB-75; conditions: SNB-75 (CNS Cancer); 1.00E−5 Molar
Procedure: as §1, §2

LOX IMVI = test: NCI drug screen, LOX IMVI; conditions: LOX IMVI (Melanoma); 1.00E−5 Molar
Procedure: as §1, §2

M14 = test: NCI drug screen, M14; conditions: M14 (Melanoma); 1.00E−5 Molar
Procedure: as §1, §2

UACC-257 = test: NCI drug screen, UACC-257; conditions: UACC-257 (Melanoma); 1.00E−5 Molar
Procedure: as §1, §2

NCI drug screen, A489 = conditions: A489 (Renal Cancer); 1.00E−5 Molar
Procedure: as §1, §2

ACHN = test: NCI drug screen, ACHN; conditions: ACHN (Renal Cancer); 1.00E−5 Molar
Procedure: as §1, §2

SN12C = test: NCI drug screen, SN12C; conditions: SN12C (Renal Cancer); 1.00E−5 Molar
Procedure: as §1, §2

TK-10 = test: NCI drug screen, TK-10; conditions: TK-10 (Renal Cancer); 1.00E−5 Molar
Procedure: as §1, §2

CAKI-1 = test: NCI drug screen, CAKI-1; conditions: CAKI-1 (Renal Cancer); 1.00E−5 Molar
Procedure: as §1, §2

DU145 = test: NCI drug screen, DU145; conditions: DU145 (Prostate Cancer); 1.00E−5 Molar
Procedure: as §1, §2

MCF7 = test: NCI drug screen, MCF7; conditions: MCF7 (Breast Cancer); 1.00E−5 Molar
Procedure: as §1, §2

MDA-MB-231/ATCC = test: NCI drug screen, MDA-MB-231/ATCC; conditions: MDA-MB-231/ATCC (Breast Cancer); 1.00E−5 Molar
Procedure: as §1, §2

HS 578-T = test: NCI drug screen, HS 578-T; conditions: HS 578-T (Breast Cancer); 1.00E−5 Molar
Procedure: as §1, §2

## Cc1ccc(C(=O)Nc2ccc3c(c2NC(=O)c2ccc(C)cc2)C(=O)c2ccccc2C3=O)cc1 [CC-04, 1,2-bis-(4-methylbenzamido)-anthraquinone]
CCRF-CEM
  Growth Percent: 79.02%
HL-60(TB)
  Growth Percent: 73.11%
K562
  Growth Percent: 107.54%
HOP-62
  Growth Percent: 105.23%
HOP-92
  Growth Percent: 91.21%
NCI-H226
  Growth Percent: 91.14%
NCI-H322M
  Growth Percent: 97.74%
NCI-H460
  Growth Percent: 88.62%
NCI-H522
  Growth Percent: 72.05%
A549/ATCC
  Growth Percent: 90.46%
HCC-2998
  Growth Percent: 84.68%
HCT-116
  Growth Percent: 78.55%
HCT-15
  Growth Percent: 102.44%
HT29
  Growth Percent: 99.39%
KM12
  Growth Percent: 94.21%
SW-620
  Growth Percent: 93.79%
SF-295
  Growth Percent: 110.81%
SNB-75
  Growth Percent: 102.26%
LOX IMVI
  Growth Percent: 84.41%
M14
  Growth Percent: 91.57%
UACC-257
  Growth Percent: 98.46%
NCI drug screen, A489
  Growth Percent: 124.08%
ACHN
  Growth Percent: 112.43%
SN12C
  Growth Percent: 98.59%
TK-10
  Growth Percent: 124.91%
CAKI-1
  Growth Percent: 94.89%
DU145
  Growth Percent: 95.93%
MCF7
  Growth Percent: 71.71%
MDA-MB-231/ATCC
  Growth Percent: 93.29%
HS 578-T
  Growth Percent: 105.96%

## Cc1ccc(C(=O)Nc2c(NC(=O)CCl)ccc3c2C(=O)c2ccccc2C3=O)cc1 [CC-12, 1-(4-methylbenzamido)-2-(chloroacetamido)-anthraquinone]
HL-60(TB)
  Growth Percent: −46.88%
HOP-62
  Growth Percent: −28.62%
HOP-92
  Growth Percent: −68.77%
NCI-H226
  Growth Percent: −25.30%
NCI-H322M
  Growth Percent: 95.05%
NCI-H460
  Growth Percent: 95.65%
NCI-H522
  Growth Percent: 57.88%
A549/ATCC
  Growth Percent: −81.71%
HCT-116
  Growth Percent: −54.27%
HCT-15
  Growth Percent: −50.22%
HT29
  Growth Percent: 3.37%
KM12
  Growth Percent: −19.53%
SW-620
  Growth Percent: −43.27%
SF-295
  Growth Percent: 79.70%
SNB-75
  Growth Percent: 6.31%
LOX IMVI
  Growth Percent: −57.05%
M14
  Growth Percent: −22.68%
NCI drug screen, A489
  Growth Percent: 123.78%
ACHN
  Growth Percent: 21.92%
SN12C
  Growth Percent: −81.02%
TK-10
  Growth Percent: 130.52%
DU145
  Growth Percent: −97.56%
MCF7
  Growth Percent: −79.28%
MDA-MB-231/ATCC
  Growth Percent: 24.67%

## O=C(CCl)Nc1ccc2c(c1NC(=O)Cc1ccccc1)C(=O)c1ccccc1C2=O [CC-23, 1-[2-(phenyl)acetylamino]-2-(chloroacetamido)-anthraquinone]
CCRF-CEM
  Growth Percent: 33.97%
HL-60(TB)
  Growth Percent: 41.36%
HOP-62
  Growth Percent: 115.67%
HOP-92
  Growth Percent: 73.63%
NCI-H226
  Growth Percent: 80.49%
NCI-H322M
  Growth Percent: 104.38%
NCI-H460
  Growth Percent: 104.50%
NCI-H522
  Growth Percent: 43.37%
HCC-2998
  Growth Percent: 94.74%
HCT-116
  Growth Percent: 67.55%
HCT-15
  Growth Percent: 68.55%
HT29
  Growth Percent: 88.84%
KM12
  Growth Percent: 80.59%
SW-620
  Growth Percent: 83.41%
SF-295
  Growth Percent: 98.48%
SNB-75
  Growth Percent: 109.14%
LOX IMVI
  Growth Percent: 36.29%
M14
  Growth Percent: 87.10%
NCI drug screen, A489
  Growth Percent: 91.79%
ACHN
  Growth Percent: 79.64%
SN12C
  Growth Percent: 79.93%
TK-10
  Growth Percent: 120.81%
DU145
  Growth Percent: 85.83%
MCF7
  Growth Percent: 51.00%
MDA-MB-231/ATCC
  Growth Percent: 82.04%
HS 578-T
  Growth Percent: 66.65%

## Cc1ccc(C(=O)Nc2c(NC(=O)CN3CCCC3)ccc3c2C(=O)c2ccccc2C3=O)cc1 [CC-38, 1-(4-methylbenzamido)-2-[2-(tetrahydro-1H-1-pyrrolyl)acetylamino]-anthra quinone]
CCRF-CEM
  Growth Percent: 39.61%
HL-60(TB)
  Growth Percent: 96.11%
K562
  Growth Percent: 40.86%
HOP-62
  Growth Percent: 113.43%
HOP-92
  Growth Percent: 59.33%
NCI-H226
  Growth Percent: 90.22%
NCI-H322M
  Growth Percent: 82.50%
NCI-H460
  Growth Percent: 61.05%
NCI-H522
  Growth Percent: 103.02%
A549/ATCC
  Growth Percent: 84.88%
HCC-2998
  Growth Percent: 84.60%
HCT-116
  Growth Percent: 58.46%
HCT-15
  Growth Percent: 73.22%
HT29
  Growth Percent: 31.34%
KM12
  Growth Percent: 51.05%
SW-620
  Growth Percent: 82.29%
SF-295
  Growth Percent: 68.97%
SNB-75
  Growth Percent: 66.03%
LOX IMVI
  Growth Percent: 80.62%
M14
  Growth Percent: 88.01%
UACC-257
  Growth Percent: 92.83%
NCI drug screen, A489
  Growth Percent: 68.12%
ACHN
  Growth Percent: 82.23%
SN12C
  Growth Percent: 74.82%
TK-10
  Growth Percent: 86.85%
CAKI-1
  Growth Percent: 55.64%
DU145
  Growth Percent: 91.52%
MCF7
  Growth Percent: 70.79%
MDA-MB-231/ATCC
  Growth Percent: 73.34%
HS 578-T
  Growth Percent: 69.39%
